From patent publication US9801901B2, “Alginate oligomers for use in overcoming multidrug resistance in bacteria” (priority 2009, dated 2017)
Converted amounts (≈) assume the structure as drawn. Where two headings read alike, the source gives them in different places. Marks after values point to notes of the source that are not given here.

Legend:
[1] = system: Pseudomonas aeruginosa (MDR 301, PSA, V2); assay: MIC-assay, Mueller-Hinton broth with G-block alginate, 384-well, OD600; conditions: Table 8, V2
[2] = system: V12 5725 (Wales) Klebsiella pneumoniae; assay: MIC assay, CAMHB with alginate oligomer, no visible growth; assay type: cell-based; conditions: Table 5, V12 MDR Kleb pneu
[3] = system: Pseudomonas aeruginosa MDR R22 from China (V1); assay: as above; assay type: cell-based; conditions: Pseudomonas aeruginosa, Table 4, V1 MDR (China), read-out: MIC
From the text: The study described in Example 1 was repeated with the following strains of bacteria and antibiotics as detailed in Tables 4, 5 and 6.

[4] = system: Acinetobacter lwoffii (6056, V22); assay: MIC-assay, Mueller-Hinton broth with G-block alginate, 384-well, OD600
[5] = system: strains of Klebsiella pneumoniae displaying MDR phenotypes; assay: MIC-assay, Mueller-Hinton broth with G-block alginate, 384-well, OD600 (Table 10); assay type: cell-based; conditions: Klebsiella pneumoniae (K3, India, V8) MDR
From the text: Minimum inhibitory concentration (MICs) of different antibiotics for strains of Klebsiella pneumoniae displaying MDR phenotypes in the presence of varying concentrations of OligoCF-5/20 (0-10%). (MIC values are expressed in μg ml^−1).

[6] = system: Acinetobacter lwoffii (Egypt, V10); assay: MIC-assay, Mueller-Hinton broth with G-block alginate, 384-well, OD600
[7] = system: V22 6056 Acinetobacter; assay: MIC assay, CAMHB with alginate oligomer, no visible growth; assay type: cell-based, Acinetobacter lwoffii; conditions: Table 5, V22 MDR Acin. lwoff
[8] = system: PA01 Pseudomonas aeruginosa ATCC 15692; assay: MIC assay, two-fold antibiotic dilutions in CAMHB with alginate oligomer, no visible growth; assay type: cell-based; conditions: Pseudomonas aeruginosa, ATCC15692, Table 4, PA01 non MDR, read-out: MIC
[9] = system: V9 (Egypt) Acinetobacter baumannii; assay: MIC assay, CAMHB with alginate oligomer, no visible growth; assay type: cell-based; conditions: Table 5, V9 MDR Acin. baum
[10] = system: Burkholderia cepacia (1322, V23); assay: MIC-assay, Mueller-Hinton broth with G-block alginate, 384-well, OD600; conditions: Table 8, G-block (OligoCF-5/20) 10%
[11] = system: Pseudomonas aeruginosa ATCC 39324, mucoid type strain (R79); assay: MIC assay, CAMHB with alginate oligomer, no visible growth; assay type: cell-based; conditions: Pseudomonas aeruginosa, ATCC39324, Table 4, R79 non MDR (muc.), read-out: MIC
[12] = system: Acinetobacter baumannii (Egypt, V9); assay: MIC-assay, Mueller-Hinton broth with G-block alginate, 384-well, OD600
[13] = system: MDR Providencia stuartii; assay: MIC-assay, Mueller-Hinton broth with G-block alginate, 384-well, OD600 (Table 11); assay type: cell-based; conditions: Providencia stuartii (IR57 India, V7) MDR
From the text: Minimum inhibitory concentration (MICs) of different antibiotics for strains of E. coli and Providencia stuartii displaying MDR phenotypes in the presence of varying concentrations of OligoCF-5/20 (0-10%). (MIC values are expressed in μg ml^−1).

[14] = system: Pseudomonas aeruginosa MDR 301 from Poland (V2); assay: MIC assay, CAMHB with alginate oligomer, no visible growth; assay type: cell-based; conditions: Pseudomonas aeruginosa, Table 4, V2 MDR (Pol.), read-out: MIC
[15] = system: Burkholderia cepacia (LMG18941, ATCC-BAA-246); assay: MIC-assay, Mueller-Hinton broth with G-block alginate, 384-well, OD600
[16] = system: V11 5702 (Wales) E. coli; assay: MIC assay, CAMHB with alginate oligomer, no visible growth; assay type: cell-based; conditions: Escherichia coli; Table 5; V11 MDR E.coli; OligoCF-5/20 0G; read-out: MIC
[17] = Table 9, G-block (OligoCF-5/20) 0%
[18] = Table 9, G-block (OligoCF-5/20) 2%
[19] = Table 9, G-block (OligoCF-5/20) 6%
[20] = Table 9, G-block (OligoCF-5/20) 10%

`CC[C@H]1OC(=O)[C@H](C)[C@@H](O[C@H]2C[C@@](C)(OC)[C@@H](O)[C@H](C)O2)[C@H](C)[C@@H](O[C@@H]2O[C@H](C)C[C@H](N(C)C)[C@H]2O)[C@](C)(O)C[C@@H](C)C(=O)[C@H](C)[C@@H](O)[C@]1(C)O` [Erythromycin] was tested. Which MIC ([1]; Pseudomonas aeruginosa, G-block (OligoCF-5/20) 0%) did it give?
The MIC was over 512 µg/mL.

What about the MIC ([1]; Pseudomonas aeruginosa, G-block (OligoCF-5/20) 2%) of the same compound?
The MIC was over 512 µg/mL.

What about the MIC ([1]; G-block (OligoCF-5/20) 10%) of the same compound?
The MIC was 512 µg/mL (≈ 698 µM).

What about the MIC ([2]; Klebsiella pneumoniae, OligoCF-5/20 0G, read-out: MIC) of the same compound?
Its MIC is 512 µg/mL (≈ 698 µM).

What about the MIC ([2]; OligoCF-5/20 +6% G) of the same compound?
Its MIC is 512 µg/mL (≈ 698 µM).

And the MIC ([2]; OligoCF-5/20 +10% G)?
The MIC was 512 µg/mL (≈ 698 µM).

What about the MIC ([3]; OligoCF-5/20 0G) of the same compound?
The MIC was 128 µg/mL (≈ 174 µM).

What about the MIC ([3]; OligoCF-5/20 +6% G) of the same compound?
Its MIC is 64 µg/mL (≈ 87.2 µM).

What about the MIC ([3]; OligoCF-5/20 +10% G) of the same compound?
The MIC was 32 µg/mL (≈ 43.6 µM).

What about the MIC [4, 17] of the same compound?
Its MIC is under 2 µg/mL.

What about the MIC [4, 18] of the same compound?
The MIC was under 2 µg/mL.

What about the MIC [4, 19] of the same compound?
The MIC was under 2 µg/mL.

And the MIC [4, 20]?
Its MIC is under 2 µg/mL.

And the MIC ([5]; G-block (OligoCF-5/20) 0%)?
Its MIC is 128 µg/mL (≈ 174 µM).

And the MIC ([5]; G-block (OligoCF-5/20) 2%)?
The MIC was 128 µg/mL (≈ 174 µM).

And the MIC ([5]; G-block (OligoCF-5/20) 6%)?
Its MIC is 128 µg/mL (≈ 174 µM).

What about the MIC ([5]; G-block (OligoCF-5/20) 10%) of the same compound?
Its MIC is 128 µg/mL (≈ 174 µM).

And the MIC [6, 17]?
The MIC was 1 µg/mL (≈ 1.36 µM).

And the MIC [6, 18]?
Its MIC is under 1 µg/mL.

What about the MIC [6, 19] of the same compound?
The MIC was under 1 µg/mL.

What about the MIC [6, 20] of the same compound?
Its MIC is under 1 µg/mL.

What about the MIC ([7]; Acinetobacter, OligoCF-5/20 0G, read-out: MIC) of the same compound?
The MIC was under 0.5 µg/mL.

And the MIC ([7]; OligoCF-5/20 +2% G)?
Its MIC is under 0.5 µg/mL.

And the MIC ([7]; OligoCF-5/20 +6% G)?
The MIC was under 0.5 µg/mL.

And the MIC ([7]; OligoCF-5/20 +10% G)?
The MIC was under 0.5 µg/mL.

And the MIC ([8]; OligoCF-5/20 0G)?
The MIC was 128 µg/mL (≈ 174 µM).

What about the MIC ([8]; OligoCF-5/20 +2% G) of the same compound?
Its MIC is 64 µg/mL (≈ 87.2 µM).

What about the MIC ([8]; OligoCF-5/20 +6% G) of the same compound?
Its MIC is 64 µg/mL (≈ 87.2 µM).

What about the MIC ([8]; OligoCF-5/20 +10% G) of the same compound?
Its MIC is 16 µg/mL (≈ 21.8 µM).

What about the MIC ([9]; Acinetobacter baumannii, OligoCF-5/20 0G, read-out: MIC) of the same compound?
Its MIC is 8 µg/mL (≈ 10.9 µM).

And the MIC ([9]; OligoCF-5/20 +2% G)?
Its MIC is 4^† μg/ml.

What about the MIC ([9]; OligoCF-5/20 +6% G) of the same compound?
The MIC was 1^† μg/ml.

What about the MIC ([9]; OligoCF-5/20 +10% G) of the same compound?
Its MIC is <0.5^† μg/ml.

And the MIC [10]?
The MIC was 64 µg/mL (≈ 87.2 µM).

And the MIC ([11]; OligoCF-5/20 0G)?
The MIC was 128 µg/mL (≈ 174 µM).

And the MIC ([11]; OligoCF-5/20 +2% G)?
The MIC was 64 µg/mL (≈ 87.2 µM).

What about the MIC ([11]; OligoCF-5/20 +6% G) of the same compound?
Its MIC is 32 µg/mL (≈ 43.6 µM).

What about the MIC ([11]; OligoCF-5/20 +10% G) of the same compound?
The MIC was 2 µg/mL (≈ 2.73 µM).

And the MIC [12, 17]?
The MIC was 8 µg/mL (≈ 10.9 µM).

And the MIC [12, 18]?
Its MIC is 2 µg/mL (≈ 2.73 µM).

What about the MIC [12, 19] of the same compound?
Its MIC is 1 µg/mL (≈ 1.36 µM).

And the MIC [12, 20]?
The MIC was under 1 µg/mL.

And the MIC ([13]; G-block (OligoCF-5/20) 0%)?
The MIC was 32 µg/mL (≈ 43.6 µM).

What about the MIC ([13]; G-block (OligoCF-5/20) 2%) of the same compound?
Its MIC is 16 µg/mL (≈ 21.8 µM).

And the MIC ([13]; G-block (OligoCF-5/20) 6%)?
The MIC was 16 µg/mL (≈ 21.8 µM).

What about the MIC ([13]; G-block (OligoCF-5/20) 10%) of the same compound?
Its MIC is 16 µg/mL (≈ 21.8 µM).

And the MIC ([14]; OligoCF-5/20 0G)?
The MIC was 128 µg/mL (≈ 174 µM).

And the MIC ([14]; OligoCF-5/20 +6% G)?
Its MIC is 64 µg/mL (≈ 87.2 µM).

And the MIC ([14]; OligoCF-5/20 +10% G)?
Its MIC is 16 µg/mL (≈ 21.8 µM).

And the MIC ([15]; ATCCBAA246|LMG18941, Table 8, G-block (OligoCF-5/20) 6%)?
The MIC was 64 µg/mL (≈ 87.2 µM).

What about the MIC ([15]; ATCCBAA246|LMG18941, Table 8, G-block (OligoCF-5/20) 10%) of the same compound?
The MIC was 64 µg/mL (≈ 87.2 µM).

What about the MIC [16] of the same compound?
Its MIC is 512 µg/mL (≈ 698 µM).
